Measured values: article PMC11649521 (The Journal of Physiology, 2024)

Experiments:
Experiment in all cases: cell-based
Details in all cases: read-out: % block at 1 μM PhTx
[1] = molecular target: A/β (type-A iGluR/Neto-β; GluRIIA/C/D/E + Neto-β) (Drosophila melanogaster, UniProt Q0KI42+Q7KSB1+Q9VMP4+Q9VPV3)
[2] = molecular target: B/α (type-B iGluR/Neto-α; GluRIIB/C/D/E + Neto-α) (Drosophila melanogaster, UniProt Q0KI42+Q7KSB1+Q9VMP3+Q9VPV3)
[3] = molecular target: B/β (type-B iGluR/Neto-β; GluRIIB/C/D/E + Neto-β) (Drosophila melanogaster, UniProt Q0KI42+Q7KSB1+Q9VMP3+Q9VPV3)

Sequence of A/β (type-A iGluR/Neto-β; GluRIIA/C/D/E + Neto-β) (Q9VMP4 22-907): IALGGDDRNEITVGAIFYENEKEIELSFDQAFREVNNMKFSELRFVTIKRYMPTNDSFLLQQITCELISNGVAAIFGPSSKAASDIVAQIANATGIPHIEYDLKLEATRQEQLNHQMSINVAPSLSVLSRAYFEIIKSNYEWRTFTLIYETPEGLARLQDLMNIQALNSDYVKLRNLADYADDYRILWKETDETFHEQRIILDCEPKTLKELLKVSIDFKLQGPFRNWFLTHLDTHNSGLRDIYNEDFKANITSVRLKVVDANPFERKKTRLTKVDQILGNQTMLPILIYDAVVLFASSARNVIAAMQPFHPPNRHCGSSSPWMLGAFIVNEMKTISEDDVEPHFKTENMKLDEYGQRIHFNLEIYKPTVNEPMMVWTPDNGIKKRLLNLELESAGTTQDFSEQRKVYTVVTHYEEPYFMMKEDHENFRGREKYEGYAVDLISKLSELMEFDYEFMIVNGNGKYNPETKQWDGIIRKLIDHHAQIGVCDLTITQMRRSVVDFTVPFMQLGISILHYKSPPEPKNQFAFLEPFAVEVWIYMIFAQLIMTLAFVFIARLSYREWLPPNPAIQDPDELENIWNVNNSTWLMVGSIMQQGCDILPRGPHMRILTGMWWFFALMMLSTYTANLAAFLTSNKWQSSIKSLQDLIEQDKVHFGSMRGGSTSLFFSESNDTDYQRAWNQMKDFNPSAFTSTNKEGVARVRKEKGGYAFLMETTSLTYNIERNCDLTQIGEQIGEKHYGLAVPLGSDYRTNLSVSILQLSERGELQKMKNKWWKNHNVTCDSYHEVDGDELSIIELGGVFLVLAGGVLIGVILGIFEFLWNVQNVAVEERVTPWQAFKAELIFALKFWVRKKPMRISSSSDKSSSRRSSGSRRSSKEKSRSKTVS
Sequence of A/β (type-A iGluR/Neto-β; GluRIIA/C/D/E + Neto-β) (Q9VPV3 23-940): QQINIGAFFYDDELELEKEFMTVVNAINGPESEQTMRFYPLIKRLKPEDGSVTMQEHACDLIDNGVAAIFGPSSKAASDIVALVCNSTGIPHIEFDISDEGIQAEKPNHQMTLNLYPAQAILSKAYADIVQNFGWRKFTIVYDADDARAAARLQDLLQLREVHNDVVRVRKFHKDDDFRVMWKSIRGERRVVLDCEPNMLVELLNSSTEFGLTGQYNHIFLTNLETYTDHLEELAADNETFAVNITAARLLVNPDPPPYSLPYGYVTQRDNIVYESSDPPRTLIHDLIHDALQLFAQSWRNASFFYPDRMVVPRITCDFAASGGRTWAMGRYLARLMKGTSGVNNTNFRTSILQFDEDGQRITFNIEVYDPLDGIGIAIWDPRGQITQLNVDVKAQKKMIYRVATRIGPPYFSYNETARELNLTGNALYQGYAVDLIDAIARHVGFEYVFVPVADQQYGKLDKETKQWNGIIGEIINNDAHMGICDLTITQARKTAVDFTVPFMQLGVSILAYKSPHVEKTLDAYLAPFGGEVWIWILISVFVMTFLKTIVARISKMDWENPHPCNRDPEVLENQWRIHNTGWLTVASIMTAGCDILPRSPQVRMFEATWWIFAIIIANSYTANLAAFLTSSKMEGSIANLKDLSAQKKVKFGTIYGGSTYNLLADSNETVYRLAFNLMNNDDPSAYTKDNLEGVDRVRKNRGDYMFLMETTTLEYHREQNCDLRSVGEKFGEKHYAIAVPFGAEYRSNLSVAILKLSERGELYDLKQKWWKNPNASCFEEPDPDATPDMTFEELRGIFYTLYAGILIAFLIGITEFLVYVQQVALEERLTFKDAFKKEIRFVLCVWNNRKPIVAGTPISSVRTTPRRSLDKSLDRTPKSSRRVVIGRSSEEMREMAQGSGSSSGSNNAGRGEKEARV
Sequence of A/β (type-A iGluR/Neto-β; GluRIIA/C/D/E + Neto-β) (Q7KSB1 19-902): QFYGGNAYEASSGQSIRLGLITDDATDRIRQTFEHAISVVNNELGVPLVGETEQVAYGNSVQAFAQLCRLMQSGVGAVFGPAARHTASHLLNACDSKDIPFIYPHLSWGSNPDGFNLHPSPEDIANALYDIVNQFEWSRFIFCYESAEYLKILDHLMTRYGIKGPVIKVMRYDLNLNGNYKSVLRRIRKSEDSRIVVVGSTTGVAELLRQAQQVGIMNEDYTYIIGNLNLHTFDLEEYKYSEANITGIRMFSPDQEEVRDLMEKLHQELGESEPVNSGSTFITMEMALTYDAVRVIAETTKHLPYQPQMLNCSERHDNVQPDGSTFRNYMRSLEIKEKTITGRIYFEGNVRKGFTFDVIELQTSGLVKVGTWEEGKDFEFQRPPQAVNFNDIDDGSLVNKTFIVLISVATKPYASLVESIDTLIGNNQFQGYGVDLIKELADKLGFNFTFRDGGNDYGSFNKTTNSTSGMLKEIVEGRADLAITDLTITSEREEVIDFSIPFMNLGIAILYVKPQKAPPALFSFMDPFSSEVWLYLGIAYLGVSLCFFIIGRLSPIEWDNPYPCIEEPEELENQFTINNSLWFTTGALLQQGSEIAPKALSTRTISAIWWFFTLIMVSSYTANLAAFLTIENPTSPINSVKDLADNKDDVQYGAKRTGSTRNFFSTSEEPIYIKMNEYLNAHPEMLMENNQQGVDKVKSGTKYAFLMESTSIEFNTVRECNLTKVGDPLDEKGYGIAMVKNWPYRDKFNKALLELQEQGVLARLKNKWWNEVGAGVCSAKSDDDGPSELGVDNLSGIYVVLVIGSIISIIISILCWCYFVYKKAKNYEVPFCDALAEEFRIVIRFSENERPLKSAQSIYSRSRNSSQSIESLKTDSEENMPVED
Sequence of A/β (type-A iGluR/Neto-β; GluRIIA/C/D/E + Neto-β) (Q0KI42 23-897): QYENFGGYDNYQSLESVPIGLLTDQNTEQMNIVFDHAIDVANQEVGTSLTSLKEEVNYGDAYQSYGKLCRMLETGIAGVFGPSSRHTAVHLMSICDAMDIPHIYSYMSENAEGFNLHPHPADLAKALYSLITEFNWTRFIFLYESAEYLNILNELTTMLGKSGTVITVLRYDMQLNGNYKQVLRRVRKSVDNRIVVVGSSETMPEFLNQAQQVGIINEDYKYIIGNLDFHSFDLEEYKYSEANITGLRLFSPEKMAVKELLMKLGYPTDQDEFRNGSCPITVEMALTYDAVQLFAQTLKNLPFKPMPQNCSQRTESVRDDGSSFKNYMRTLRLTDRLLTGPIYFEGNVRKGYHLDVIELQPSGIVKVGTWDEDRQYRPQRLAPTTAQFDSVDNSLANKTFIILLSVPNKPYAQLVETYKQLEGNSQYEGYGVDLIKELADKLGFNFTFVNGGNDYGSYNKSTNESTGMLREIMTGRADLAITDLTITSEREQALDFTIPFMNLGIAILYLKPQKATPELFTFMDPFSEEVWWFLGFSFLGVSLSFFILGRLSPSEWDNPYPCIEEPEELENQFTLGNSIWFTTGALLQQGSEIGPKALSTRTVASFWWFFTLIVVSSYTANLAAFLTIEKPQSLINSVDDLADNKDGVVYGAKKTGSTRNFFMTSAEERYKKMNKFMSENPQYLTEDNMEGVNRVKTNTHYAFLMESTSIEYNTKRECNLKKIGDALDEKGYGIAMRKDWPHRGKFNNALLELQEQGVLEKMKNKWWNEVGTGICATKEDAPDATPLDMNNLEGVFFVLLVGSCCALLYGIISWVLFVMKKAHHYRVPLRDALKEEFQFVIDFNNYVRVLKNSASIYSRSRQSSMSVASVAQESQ
Sequence of A/β (type-A iGluR/Neto-β; GluRIIA/C/D/E + Neto-β) (X2JDL4 127-822 partner limits assumed): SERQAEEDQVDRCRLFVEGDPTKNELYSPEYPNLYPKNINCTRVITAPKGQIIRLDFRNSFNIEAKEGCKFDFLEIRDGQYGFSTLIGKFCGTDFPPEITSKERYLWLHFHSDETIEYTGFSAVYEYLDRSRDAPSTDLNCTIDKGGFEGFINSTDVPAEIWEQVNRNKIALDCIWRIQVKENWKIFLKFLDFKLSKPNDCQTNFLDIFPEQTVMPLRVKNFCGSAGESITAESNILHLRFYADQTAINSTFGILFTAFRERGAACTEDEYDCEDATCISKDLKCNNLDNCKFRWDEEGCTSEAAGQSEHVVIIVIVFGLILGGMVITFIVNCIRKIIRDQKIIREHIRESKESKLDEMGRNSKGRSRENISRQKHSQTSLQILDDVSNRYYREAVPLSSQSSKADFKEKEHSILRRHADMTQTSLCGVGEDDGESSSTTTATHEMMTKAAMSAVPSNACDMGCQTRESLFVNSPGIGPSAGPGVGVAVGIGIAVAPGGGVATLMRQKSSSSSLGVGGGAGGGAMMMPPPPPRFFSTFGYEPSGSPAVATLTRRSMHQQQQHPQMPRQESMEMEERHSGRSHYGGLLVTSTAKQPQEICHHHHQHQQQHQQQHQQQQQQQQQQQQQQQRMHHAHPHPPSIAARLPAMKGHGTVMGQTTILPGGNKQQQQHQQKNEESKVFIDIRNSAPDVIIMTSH

## CCCC(=O)N[C@@H](Cc1ccc(O)cc1)C(=O)NCCCNCCCCNCCCN [PhTx, philanthotoxin‐343]
[1]
  inhibition at 1 µM: 98.8 ± 0.67%
[2]
  inhibition at 1 µM: 83.3 ± 5.07%
[3]
  inhibition at 1 µM: 74.7 ± 1.72%
